Experimental data published in patent US7884115B2, “Methods and compositions for the treatment of pain and other neurological conditions” (Allergan, Inc., priority 2004, dated 2011).

Legend:
[1] = test system: allodynia induced by sulprostone; assay: Mouse sulprostone model of allodynia; format: in vivo; details: up to 1 mg/kg, 15 min before sulprostone 300 ng/kg IP, FIG. 3
Description: In this alternative model of chronic pain, allodynia can be induced in mice through intraperitoneal treatment of the animals with 300 ng/kg sulprostone (prostaglandin E2 receptor agonist) in 50% DMSO and in a volume of 5 μl. In this model, the pain response to stroking the flank with a paint brush is scored 8 times over a 35 minute period starting 15 minutes following spinal administration of sulprostone. Minami et al., 57 Pain 217-223 (1994), hereby incorporated by reference herein. Sulprostone treatment alone elicits a score of 12-13 on a 16-point scale.
In either model, the compounds are formulated in d-H2O and given in a volume of 1 ml/kg body weight for intraperitoneal (IP) dosing.
Six mice per group are rendered allodynic by injection of one of the following agents: 300 ng/kg sulprostone in DMSO IP, 100 ng/kg phenylephrine (PE) in dH2O IP, or 100 ng NMDA in DMSO intrathecally (IT). Fifteen minutes before administration of the allodynia-inducing agents, the experimental mice are given 1 mg/kg NB-DNJ. Thirty (30) minutes following administration of NB-DNJ, the allodynic response is monitored as described by brushing the flank of each mouse with a paint brush.
Five to six mice per group are rendered allodynic by injection of 300 ng/kg sulprostone IP. Fifteen minutes before inducement of an allodynic response, experimental mice are given one of the following: 1 mg/kg, 300 μg/kg, and 100 μg/kg NB-DNJ; 1 mg/kg N-butyldeoxymannojirimycin; 1 mg/kg N-5-carboxy-1-deoxynojirimycin; 1 mg/kg N-dodecyldeoxynojirimycin; 1 mg/kg N-ethyl-1-deoxynojirimycin; 1 mg/kg, 300 μg/kg, and 30 μg/kg D-glucaro-delta-lactam; 1 mg/kg 4-O-a-D-glucopyranosylmoranoline; 1 mg/kg nojirimycin bisulfite; 1 mg/kg nojirimycin-1-sulfonic acid; 1 mg/kg N-(n-nonyl)deoxynojirimycin; 1 mg/kg N(7-oxadecyl)deoxynojirimycin; and 1 mg/kg N-(7-oxa-9,9,9-trifluorononyl)deoxynojirimycin. The DMSO vehicle and sulprostone alone are used as controls.
Starting thirty (30) minutes following administration of NB-DNJ, the allodynic response of each mouse was monitored by brushing the flank of the mouse with a paint brush.
Five to six mice per group are rendered allodynic by injection of one of the following: 300 ng/kg sulprostone IP, 100 ng/kg phenylephrine (PE) IP, or 100 ng NMDA intrathecally (IT). Fifteen minutes prior to the induction of allodynia, the mice are given D-glucaro-delta-lactam IP at […], or 1 mg/kg. PE or NMDA-treated mice are given 1 mg/kg D-glucaro-delta-lactam IP.

[2] = test system: chronic pain; assay: Mouse and rat models of chronic pain (summary statement); format: in vivo
[3] = test system: primary rat brain cortical neurons treated with kainate; assay: Kainate-induced excitotoxicity in primary cortical neurons (LDH release); format: cell-based; details: cortical cell cultures; FIGS. 9A, 9B and 9C
Description: (§1) Primary rat brain cortical neurons were cultured as follows. In brief, rat cerebral cortices were removed from brains of the 16 day-old-fetal rats. The neocortices were gently triturated and plated on 24 well plates (300,000 viable cells/cm2) in plating Modified Eagle's Medium (MEM) supplemented with 10% horse serum, 10% fetal calf serum and 2 mM L-glutamine. Cultures were maintained at 37 C in a humidified 5% CO2 atmosphere.
(§2) After 4 days' growth (DIV 4), half of the medium was replaced by a medium identical to the plating medium but lacking calf serum. At DIV4, 10 μM 5-fluoro-2-deoxyuridine was included to each well to halt overgrowth of glia. Mixed cultures of neurons and glia were then fed at DIV7 and DIV11 with MEM plus 5% horse serum previously conditioned by growth with cortical astrocytes for 24 h.
Excitotoxicity was induced in these cells by addition of 50 μM kainate or 20 μM N-methyl-D-aspartate plus 10 μM D-serine to each well.
(§3) Under the experimental conditions used, i.e. after 6 hours addition of excitotoxic agent, 40% toxicity is generally observed and measured by determination of the amount of lactate dehydrogenase (LDH) released into the medium following membrane degradation. Such assay methods are well-known; a kit for conducting a homogeneous form of the LDH assay format is sold by Promega under the name CytoTox ONE® Homogenous Membrane Integrity Assay. Overall cell injury was assessed microscopically under phase-contrast optics or by measuring amount of LDH released into the bathing medium 24 hr after neurotoxic insults (see, e.g., Koh and Choi, J. NEUROSCI. METHODS 20: 83-90, 1987), hereby incorporated by reference herein.
[…] The final results are normalized optical density (OD) values (treated cells/untreated control cells), where a value of 1 represents 100% neuronal survival and a value of 0.6 represents 60% survival.

[4] = test system: allodynia induced by N-methyl-D-aspartate (NMDA); assay: Mouse NMDA model of allodynia; format: in vivo; details: 3 mg/kg, 15 min before 200 ng NMDA IT, FIG. 2
Description: In variants of this model, allodynia can be induced using 100 ng N-methyl-D-aspartate (NMDA) in DMSO intrathecally, or IP phenylephrine (PE) 100 ng/kg formulated in dH2O. In either model, the compounds are formulated in d-H2O and given in a volume of 1 ml/kg body weight for intraperitoneal (IP) dosing. Six mice per group are rendered allodynic by injection of one of the following agents: 300 ng/kg sulprostone in DMSO IP, 100 ng/kg phenylephrine (PE) in dH2O IP, or 100 ng NMDA in DMSO intrathecally (IT). Fifteen minutes before administration of the allodynia-inducing agents, the experimental mice are given 1 mg/kg NB-DNJ. Thirty (30) minutes following administration of NB-DNJ, the allodynic response is monitored as described by brushing the flank of each mouse with a paint brush. Six mice per group are given one of the following: given 100 μg/kg NB-DNJ, 300 μg/kg NB-DNJ, 1 mg/kg NB-DNJ, or 3 mg/kg 1-deoxynojirimycin. After 15 minutes the mice are rendered allodynic by injection of 200 ng NMDA in DMSO IT. Starting thirty (30) minutes following administration of NB-DNJ, the allodynic response of each mouse is monitored by brushing the flank of the mouse with a paint brush. Five to six mice per group are rendered allodynic by injection of one of the following: 300 ng/kg sulprostone IP, 100 ng/kg phenylephrine (PE) IP, or 100 ng NMDA intrathecally (IT). Fifteen minutes prior to the induction of allodynia, the mice are given D-glucaro-delta-lactam IP at […], or 1 mg/kg. PE or NMDA-treated mice are given 1 mg/kg D-glucaro-delta-lactam IP.

[5] = test system: primary rat brain cortical neurons treated with NMDA plus D-serine; assay: NMDA/serine-induced excitotoxicity in primary cortical neurons (LDH release); format: cell-based; details: NMDA/serine-treated cells, 3 h or 16 h preincubation; FIGS. 10A and 10B
Description: as §1
as §2, with “h. […]” for “h.”
as §3, with “Such assay methods are well-known; a kit for conducting a homogeneous form of the LDH assay format is sold by Promega under the name CytoTox ONE® Homogenous Membrane Integrity Assay.” left out, “herein. […]” for “herein.”

CCN1C[C@H](O)[C@@H](O)[C@H](O)[C@H]1CO [N-ethyldeoxynojirimycin, N-ethyl-1-deoxynojirimycin]
attenuation of the allodynic response (analgesic activity) [1]: attenuate the allodynic response

CCCCN1C[C@H](O)[C@@H](O)[C@@H](O)[C@H]1CO [NB-DGJ, N-butyldeoxygalactonojirimycin]
activity in models of chronic pain [2]: not to be active

OC[C@H]1NC[C@H](O)[C@@H](O)[C@@H]1O [DNJ, 1-deoxynojirimycin]
protection against kainate induced toxicity [3]: about 50% | analgesic activity [4]: not analgesic | neuroprotective effect [5]: no neuroprotective effect
